Target: Human TASK-1 channels (Homo sapiens (Human), UniProt O14649)
Experiment: Determination of the activity on the TASK-1 channel in Xenopus oocytes (two-microelectrode voltage clamp)
Type: cell-based
Conditions: for IC50: human TASK-1 expressed in Xenopus oocytes, room temperature, read-out: IC50 value for TASK-1 inhibition; for inhibition at 5 µM: compound concentration 5 μM
Outline: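 Xenopus oocytes were injected with human TASK-1 cRNA and recorded two days later by two-microelectrode voltage clamp, holding at −90 mV with 500 ms steps to 40 mV. Superfusion used ND96, pH 7.4, at room temperature, with rising compound concentrations; percentage inhibition of control current was fitted to a dose-response curve for IC50.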

Human TASK-1 channels, sequence (O14649 whole entry): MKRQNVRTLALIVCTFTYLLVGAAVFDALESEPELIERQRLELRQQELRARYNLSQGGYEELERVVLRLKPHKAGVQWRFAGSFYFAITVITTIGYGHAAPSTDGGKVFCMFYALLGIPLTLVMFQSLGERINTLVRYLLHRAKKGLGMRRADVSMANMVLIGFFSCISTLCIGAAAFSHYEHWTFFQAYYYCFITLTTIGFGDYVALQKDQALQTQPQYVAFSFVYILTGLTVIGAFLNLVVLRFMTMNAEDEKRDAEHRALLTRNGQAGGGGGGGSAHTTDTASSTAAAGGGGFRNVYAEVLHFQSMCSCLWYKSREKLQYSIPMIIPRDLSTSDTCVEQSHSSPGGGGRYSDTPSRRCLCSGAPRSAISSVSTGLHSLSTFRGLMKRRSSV

| Structure (SMILES) | IC50 [µM] | inhibition at 5 µM [%] |
| --- | --- | --- |
| CC[C@@H](NC(=O)c1cc(C(=O)N2CCCC2C2CC2)n2c1COCC2)c1ccccc1 (stereo partly drawn) [16gb, 6-(2-Cyclopropyl-pyrrolidine-1-carbonyl)-3,4-dihydro-1H-pyrrolo[2,1-c][1,4]oxazine-8-carboxylic acid ((R)-1-phenyl-propyl)-amide] | 0.45 |  |
| CC[C@@H](NC(=O)c1cc(C(=O)N2CCC[C@@H]2C)n2c1COCC2)c1cnc(C(F)(F)F)cc1C(F)(F)F [16by, 6-((S)-2-Methyl-pyrrolidine-1-carbonyl)-3,4-dihydro-1H-pyrrolo[2,1-c][1,4]oxazine-8-carboxylic acid [(R)-1-(4,6-bis-trifluoromethyl-pyridin-3-yl)-propyl]-amide] | 0.8 |  |
| CC[C@@H](NC(=O)c1cc(C(=O)N2CCC[C@@H]2C)n2c1COCC2)c1ccc(F)cc1 [16az, 6-((S)-2-Methyl-pyrrolidine-1-carbonyl)-3,4-dihydro-1H-pyrrolo[2,1-c][1,4]oxazine-8-carboxylic acid [(R)-1-(4-fluoro-phenyl)-propyl]-amide] | 0.12 |  |
| CC[C@@H](NC(=O)c1cc(C(=O)N(C)CC2CC2)n2c1COCC2)c1ccccc1 [16he, 3,4-Dihydro-1H-pyrrolo[2,1-c][1,4]oxazine-6,8-dicarboxylic acid 6-(cyclopropylmethyl-methyl-amide) 8-[((R)-1-phenyl-propyl)-amide]] | 0.49 |  |
| C[C@H]1CCCN1C(=O)c1cc(C(=O)N[C@@H]2CCc3nc(C(F)(F)F)ccc32)c2n1CCOC2 (racemic) [16cv, 6-((S)-2-Methyl-pyrrolidine-1-carbonyl)-3,4-dihydro-1H-pyrrolo[2,1-c][1,4]oxazine-8-carboxylic acid ((R)-2-trifluoromethyl-6,7-dihydro-5H-[1]pyrindin-5-yl)-amide] | 0.9 |  |
| CC[C@@H](NC(=O)c1cc(C(=O)N2CCC[C@@H]2C)n2c1COCC2)c1c(Cl)cncc1Cl [16bv, 6-((S)-2-Methyl-pyrrolidine-1-carbonyl)-3,4-dihydro-1H-pyrrolo[2,1-c][1,4]oxazine-8-carboxylic acid [(R)-1-(3,5-dichloro-pyridin-4-yl)-propyl]-amide] | 0.14 |  |
| C[C@@H](NC(=O)c1cc(C(=O)N[C@H](C)c2ccccc2F)c2n1CCOC2)c1ccc(F)cc1 [16dq, 3,4-Dihydro-1H-pyrrolo[2,1-c][1,4]oxazine-6,8-dicarboxylic acid 6-{[(R)-1-(4-fluoro-phenyl)-ethyl]-amide} 8-{[(R)-1-(2-fluoro-phenyl)-ethyl]-amide}] | 0.22 |  |
| CC[C@@H](NC(=O)c1cc(C(=O)N[C@H](CC)c2ncccn2)c2n1CCOC2)c1ccccc1 [16kd, 3,4-Dihydro-1H-pyrrolo[2,1-c][1,4]oxazine-6,8-dicarboxylic acid 6-[((R)-1-phenyl-propyl)-amide] 8-[((R)-1-pyrimidin-2-yl-propyl)-amide]] | 0.14 |  |
| CC[C@@H](NC(=O)c1cc(C(=O)NCC2CC2)n2c1COCC2)c1ccccc1Cl [16ld, 3,4-Dihydro-1H-pyrrolo[2,1-c][1,4]oxazine-6,8-dicarboxylic acid 8-{[(R)-1-(2-chloro-phenyl)-propyl]-amide} 6-cyclopropylmethyl-amide] | 0.08 |  |
| CCOC(=O)CN(C)C(=O)c1cc(C(=O)N[C@H](CC)c2ccccc2)c2n1CCOC2 [16iy, {Methyl-[8-((R)-1-phenyl-propylcarbamoyl)-3,4-dihydro-1H-pyrrolo[2,1-c][1,4]oxazine-6-carbonyl]-amino}-acetic acid ethyl ester] | 0.27 |  |
| CC[C@@H](NC(=O)c1cc(C(=O)N2CCC[C@H]2C(C)C)c2n1CCOC2)c1ccccc1 [16km, 8-((S)-2-Isopropyl-pyrrolidine-1-carbonyl)-3,4-dihydro-1H-pyrrolo[2,1-c][1,4]oxazine-6-carboxylic acid ((R)-1-phenyl-propyl)-amide] | 0.39 |  |
| CC[C@@H](NC(=O)c1cc(C(=O)NCc2ccno2)n2c1COCC2)c1ccccc1 [16hf, 3,4-Dihydro-1H-pyrrolo[2,1-c][1,4]oxazine-6,8-dicarboxylic acid 6-[(isoxazol-5-ylmethyl)-amide] 8-[((R)-1-phenyl-propyl)-amide]] | 0.38 |  |
| CC[C@@H](NC(=O)c1cc(C(=O)NCC2CCCCC2)n2c1CCCC2)c1ccccc1 [16mp, 5,6,7,8-Tetrahydro-indolizine-1,3-dicarboxylic acid 3-cyclohexylmethyl-amide 1-[((R)-1-phenyl-propyl)-amide]] | 0.093 |  |
| CC[C@@H](NC(=O)c1cc(C(=O)N2CCC[C@@H]2C)n2c1COCC2)c1cccc(C(F)(F)F)n1 [16ap] | 0.076 |  |
| CC[C@@H](NC(=O)c1cc(C(=O)N2CCC[C@@H]2C)n2c1COCC2)c1cncc(Cl)c1 [16cj, 6-((S)-2-Methyl-pyrrolidine-1-carbonyl)-3,4-dihydro-1H-pyrrolo[2,1-c][1,4]oxazine-8-carboxylic acid [(R)-1-(5-chloro-pyridin-3-yl)-propyl]-amide] |  | 69 |
| CC[C@@H](NC(=O)c1cc(C(=O)N2CCC[C@H]2C)c2n1CCOC2)c1ccccc1 [16kj, 8-((R)-2-Methyl-pyrrolidine-1-carbonyl)-3,4-dihydro-1H-pyrrolo[2,1-c][1,4]oxazine-6-carboxylic acid ((R)-1-phenyl-propyl)-amide] | 0.27 |  |
| CC[C@@H](NC(=O)c1cc(C(=O)N[C@H](CC)c2ccccc2)n2c1COCC2)c1ccc(C(F)(F)F)nc1 [16jy, 3,4-Dihydro-1H-pyrrolo[2,1-c][1,4]oxazine-6,8-dicarboxylic acid 6-[((R)-1-phenyl-propyl)-amide] 8-{[(R)-1-(6-trifluoromethyl-pyridin-3-yl)-propyl]-amide}] | 0.18 |  |
| CC[C@@H](NC(=O)c1cc(C(=O)N2CCC[C@@H]2C)n2c1COCC2)c1ccc(Cl)nc1 [16ar, 6-((S)-2-Methyl-pyrrolidine-1-carbonyl)-3,4-dihydro-1H-pyrrolo[2,1-c][1,4]oxazine-8-carboxylic acid [(R)-1-(6-chloro-pyridin-3-yl)-propyl]-amide] | 0.44 |  |

The remaining lines, values ahead:

| IC50 [µM] | inhibition at 5 µM [%] | Structure (SMILES) |
| --- | --- | --- |
| 0.27 |  | CC[C@@H](NC(=O)c1cc(C(=O)N2CC[C@H](OC)C2)n2c1COCC2)c1ccc(F)cc1Cl [16nn, 6-((S)-3-Methoxy-pyrrolidine-1-carbonyl)-3,4-dihydro-1H-pyrrolo[2,1-c][1,4]oxazine-8-carboxylic acid [(R)-1-(2-chloro-4-fluoro-phenyl)-propyl]-amide] |
| 0.32 |  | CC[C@@H](NC(=O)c1cc(C(=O)N[C@H](C)c2ccc(OC)cc2)n2c1CCCC2)c1ccccc1 [16mt, 5,6,7,8-Tetrahydro-indolizine-1,3-dicarboxylic acid 3-{[(R)-1-(4-methoxy-phenyl)-ethyl]-amide} 1-[((R)-1-phenyl-propyl)-amide]] |
| 0.19 |  | C[C@H]1CCCN1C(=O)c1cc(C(=O)NCc2ccc(F)cc2Cl)c2n1CCOC2 [16x, 6-((S)-2-Methyl-pyrrolidine-1-carbonyl)-3,4-dihydro-1H-pyrrolo[2,1-c][1,4]oxazine-8-carboxylic acid 2-chloro-4-fluoro-benzylamide] |
| 4.5 |  | CC[C@@H](NC(=O)c1cc(C(=O)N(C)[C@@H](C)C(=O)NC(C)C)n2c1COCC2)c1ccccc1 [16rl] |
| 0.17 |  | CC[C@@H](NC(=O)c1cc(C(=O)NCc2cnccn2)n2c1COCC2)c1ccc(F)cc1Cl [16no, 3,4-Dihydro-1H-pyrrolo[2,1-c][1,4]oxazine-6,8-dicarboxylic acid 8-{[(R)-1-(2-chloro-4-fluoro-phenyl)-propyl]-amide} 6-[(pyrazin-2-ylmethyl)-amide]] |
| 1.1 |  | CC[C@@H](NC(=O)c1cc(C(=O)NC(C)c2cccc(S(=O)(=O)N(C)C)c2)n2c1COCC2)c1ccccc1 (stereo partly drawn) [16rj, 3,4-Dihydro-1H-pyrrolo[2,1-c][1,4]oxazine-6,8-dicarboxylic acid 6-{[1-(3-dimethylsulfamoyl-phenyl)-ethyl]-amide} 8-[((R)-1-phenyl-propyl)-amide]] |
|  | 83 | CC[C@@H](NC(=O)c1cc(C(=O)Nc2cncc(F)c2)n2c1CCCC2)c1ccccc1 [16ne, 5,6,7,8-Tetrahydro-indolizine-1,3-dicarboxylic acid 3-[(5-fluoro-pyridin-3-yl)-amide] 1-[((R)-1-phenyl-propyl)-amide]] |
| 0.17 |  | CC[C@@H](NC(=O)c1cc(C(=O)N[C@H](C)c2ccc(F)cc2)c2n1CCOC2)c1ncccn1 [16nv, 3,4-Dihydro-1H-pyrrolo[2,1-c][1,4]oxazine-6,8-dicarboxylic acid 8-{[(R)-1-(4-fluoro-phenyl)-ethyl]-amide} 6-[((R)-1-pyrimidin-2-yl-propyl)-amide]] |
| 0.41 |  | CC[C@@H](NC(=O)c1cc(C(=O)N2CCC[C@@H]2C(F)(F)F)n2c1COCC2)c1ccc(C(F)(F)F)nc1 [16o, 6-((R)-2-Trifluoromethyl-pyrrolidine-1-carbonyl)-3,4-dihydro-1H-pyrrolo[2,1-c][1,4]oxazine-8-carboxylic acid [(R)-1-(6-trifluoromethyl-pyridin-3-yl)-propyl]-amide] |
| 0.85 |  | CC[C@@H](NC(=O)c1cc(C(=O)N2CCC[C@@H]2C)n2c1COC(C)(C)C2)c1ccc(C(F)(F)F)nc1 [16pi, 3,3-Dimethyl-6-((S)-2-methyl-pyrrolidine-1-carbonyl)-3,4-dihydro-1H-pyrrolo[2,1-c][1,4]oxazine-8-carboxylic acid [(R)-1-(6-trifluoromethyl-pyridin-3-yl)-propyl]-amide] |
| 0.21 |  | CC[C@@H](NC(=O)c1cc(C(=O)Nc2c(C)noc2C)n2c1CCCC2)c1ccccc1 [16nd, 5,6,7,8-Tetrahydro-indolizine-1,3-dicarboxylic acid 3-[(3,5-dimethyl-isoxazol-4-yl)-amide] 1-[((R)-1-phenyl-propyl)-amide]] |
| 0.48 |  | CC[C@@H](NC(=O)c1cc(C(=O)N[C@H](C)c2cnccn2)n2c1COCC2)c1ccccc1Cl [16nq, 3,4-Dihydro-1H-pyrrolo[2,1-c][1,4]oxazine-6,7-dicarboxylic acid 8-{[(R)-1-(2-chloro-phenyl)-propyl]-amide} 6-[((R)-1-pyrazin-2-yl-ethyl)-amide]] |

Source: patent US9284333B2, “Fused pyrroledicarboxamides and their use as pharmaceuticals” (SANOFI, priority 2012, dated 2016)
